The results in this text go back to patent publication US20060079575A1, “Gamma-butyrolactone compound and pharmaceutical composition thereof” (priority 2003, published 2006).

The subject of test [1] is A549 (lung cancer cell line). Put plainly: MTT cytotoxicity assay, A549. It counts as cell-based, human. The following applies: 24 hr. The source says:
(§1) MTT assay is used to test the cytotoxic effect of BS-AE, BS-ME, BS-HE, BS-CE and BS-WE on human lung cancer cell line A549. […] According to the extraction process “BS-AE→BS-MWE→BS-CE” all of the crude extracts contain tumor inhibitory components. In order to further isolate the tumor inhibitory components from Bupleurum scorzonerifolium extract, a “Chromatography” step is further employed to isolate the BS-CE.
(§2) It is known from the experimental result of this invention, BS-AE containing the γ-butyrolactone compound and pharmaceutical composition thereof have significant growth inhibitory effect on human hepatoma, lung cancer, ovarian cancer, breast cancer, malignant glioblastoma and colorectal carcinoma cells.
On the technique in general: Tetrazolium assays rely on reduction of a dye to a coloured formazan, in cell work by metabolically active cells.

For test [2], the system named is A549-T12 (taxol resistant A549 subline). Nature of the test: MTT cytotoxicity assay, A549-T12. It counts as cell-based, human. The following applies: 24 hr.
Test [3] deals with HT29 (colon cancer cell line). Put plainly: MTT cytotoxicity assay, HT29. It counts as cell-based, human. To be noted: 24 hr.
Excerpt: as §1, §2

In test [4] the test system is OVCAR-3 (ovarian cancer cell line). Put plainly: MTT cytotoxicity assay, OVCAR-3. Format: cell-based. To be noted: Homo sapiens, OVCAR-3, read-out: IC 50, OVCAR-3; 24 hr.
Excerpt: as §1, §2

For test [5], the system named is J5 (hepatocellular carcinoma). Put plainly: MTT cytotoxicity assay, J5. It counts as cell-based. The following applies: Homo sapiens, read-out: IC 50, J 5; heading: IC 50, J 5; 24 hr.
Excerpt: as §1, §2

Test [6] concerns Hep G2 (Hepatocellular carcinoma). Put plainly: MTT cytotoxicity assay, Hep G2. Format: cell-based. To be noted: Homo sapiens, HepG2, read-out: IC 50, HepG2; heading: IC 50, HepG2; 24 hr.
Excerpt: as §1, §2

The subject of test [7] is MCF 7 (breast cancer cell line). Nature of the test: MTT cytotoxicity assay, MCF 7. It counts as cell-based. The following applies: Homo sapiens, MCF7, read-out: IC 50, MCF 7; 24 hr.
Excerpt: as §1, §2

The subject of test [8] is DBTRG-05MG (glioblastoma multiforme). Put plainly: MTT cytotoxicity assay, DBTRG-05MG. It counts as cell-based. The following applies: Homo sapiens, read-out: IC 50, DBTRG-05MG, 24 hr.
Excerpt: as §1, §2

Test [9] concerns A549 cells. Put plainly: Annexin V-FLOUS/PI flow cytometry (apoptosis), A549. Format: cell-based, human. To be noted: A549, 20 μM, cultured 48 hours; untreated 3.8%. On the procedure: FIGS. 3A through to FIG. 3C are cytograms showing the extent of cell apoptosis detected using flow cytometry for A 549 cells either untreated, treated with 20 μM of isochalihulactone, or 60 μg/ml of BS-AE and cultured for 48 hrs (wherein X-axis indicates fluorescence intensity of tumor cells bound with Annexin V-FLOUS antibodies; and Y-axis indicates fluorescence intensity of tumor cells bound with PI antibodies);
In the example of using cell line A549, untreated A549 cells, A549 cells treated with 20 μM of Isochaihulactone and A549 cells treated with 60 μg/ml of BS-AE are cultured 48 hours before utilizing flow cytometry to detect the staining results between Annexin V-FLOUS and PI. In FIGS. 3A through to 3C, X-axis represents the fluorescent brightness of tumor cells with antibody Annexin V-FLOUS, and Y-axis represents the fluorescent brightness of tumor cells with antibody PI.
Background: In flow cytometry, cells or beads pass a laser one at a time.

The test system of test [10] is A549-T12 cells. Put plainly: Annexin V-FLOUS/PI flow cytometry (apoptosis), A549-T12. To be noted: A549-T12, 8 μg/ml, 48 hours; untreated 6.8%. Format: cell-based, human. From the text: FIGS. 9A through to 9D are cytograms showing the extent of cell apoptosis detected using flow cytometry for Paclitaxel-resistant human lung cancer cell lines (A549-T12 cells) either untreated, treated with BS-AE, isochalihulactone (BS-8), or isokaerophyllin ([…] fluorescence intensity of tumor cells bound with Annexin V-FLOUS antibodies; and Y-axis indicates fluorescence intensity of tumor cells bound with PI antibodies);
The following embodiments are described with Paclitaxel-resistant tumor cell A549-T12 (passage cultured from lung cancer cell line A549 cells with low concentration of Paclitaxel) as an example to test the effect of BS-AE and its pure compounds BS-8 and BS-15 (these represent isochaihulactone and chaihulactone analogues) on A549-T12 cells. Flow cytometry, drug toxicity test, and histological sections are adopted to evaluate cytotoxic effect of the γ-butyrolactone compound and pharmaceutical composition thereof on Paclitaxel-resistant tumor cells.
FIGS. 9A through to 9D are flow cytometry results illustrating a comparison of the change of Annexin V-FLOUS and PI for untreated group with that of the group treated with 100 nM of Paclitaxel, 30 μg/ml BS-AE, 8 μg/ml BS-8 and 8 μg/ml BS-15 to A549-T12. […]

The test system of test [11] is telomerase. Put plainly: Inhibition of telomerase activity in Paclitaxel-resistant tumor cells. It counts as cell-based, human. The following applies: Paclitaxel-resistant tumor cells (A549-T12). From the text:
Furthermore, after crude Bupleurum scorzonerifolium is processed according to the above-mentioned manufacturing method, its tumor inhibitory effect is more prominent.

The test system of test [12] is A549 cells. Put plainly: Cell cycle by flow cytometry, A549. It counts as cell-based, human. The source says: FIGS. 2A through to FIG. 2D illustrate the cell cycle peak change detected using flow cytometry for A549 cells treated with Bupleurum scorzonerifolium extracts: acetone extract (BS-AE), methanol extract (BS-ME) and water extract (BS-WE) isolated according to the extracting method of the invention;
FIG. 4 is a bar chart showing cell cycle changes detected using flow cytometry for A549 cells untreated, treated with BS-AE, isochaihulactone (BS-8), and Paclitaxel;
Furthermore, flow cytometry is employed to observe the changes in cell cycle before and after the addition of different extracts from Bupleurum scorzonerifolium to A549 cells. In FIGS. 2A through to 2D, X-axis represents chromosome numbers (2N, 4N, etc.) of tumor cells in contact with the antibody, Y-axis represents the fluorescent brightness of Fluorescein Isothiocyanate (FITC). […] This effect is most significant for BS-AE.

For the next test, the system named is p21 and p53. Nature of the test: Western blotting of p21 and p53, A549. It counts as cell-based, human. The source says: FIG. 5 is a western blot analysis diagram showing the amount of tumor suppressors: p21 and p53 expressed in A 549 cells either untreated (B), treated with DMSO (D) or BS-AE, BS-ME, BS-WE, isochaihulactone (BS-1), or chaihulactone (BS-2) for 1 day (1D) or 3 days (3D);
In general terms: A western blot detects proteins with antibodies after separation by electrophoresis.

Another test concerns β-tubulin. Nature of the test: Western blot of soluble and particular β-tubulin, A549. Format: cell-based, human. To be noted: A549, FIG. 7. From the text:
FIG. 7 is a western blot analysis diagram showing expression of soluble (S) and particular (P) form of β-tubulin in A549 cells either untreated (C), treated with BS-AE, isochaihulactone (BS-8), Paclitaxel, or Vinblastine;
[…] is then used to analyze the change of cytoskeleton of tumor cell lines treated with Bupleurum scorzonerifolium extract. […] Then, a polymerization event is observed before and after the treatment of BS-AE.

In test [13] the test system is telomerase. Put plainly: Telomerase activity of treated tumor cell lines. It counts as cell-based. To be noted: cell lines of human lung cancer, hepatoma, malignant glioblastoma, colorectal carcinoma. On the procedure: A prominent cytotoxic effect was shown when the γ-butyrolactone heterocyclic compound and pharmaceutical composition thereof are added to the Paclitaxel-resistant tumor cell lines, indicating Bupleurum scorzonerifolium indeed contain active components for inhibiting tumor growth. The active components for inhibiting tumor growth refer to the novel compound and pharmaceutical composition thereof having a γ-core and having a Z or E configuration for its carbon 2(5) location at the core.

For test [14], the system named is A549-T12 cells. Put plainly: MTT assay A549-T12, 24 and 48 hrs (FIG. 10). It counts as cell-based, human. To be noted: Paclitaxel-resistant lung cancer cell line. On the procedure: FIGS. 10A through to 10C illustrate results of MTT assays for A549-T12 cells treated with BS-AE, isochaihulactone (BS-8), and isokaerophyllin (BS-15) respectively for 24 hrs and 48 hrs;
Besides, after BS-AE, BS-8, and BS-15 are added to Paclitaxel-resistant lung cancer cell line for 48 hours, viability ratio of tumor cells is reduced as illustrated in FIGS. 10A through to 10C. So, in view of IC50 or ED50, the cytotoxic effect of purified chaihulactone analog on the tumor cells is […] than BS-AE. […] Furthermore, a substantially low dose (1.5 μg/ml) of the compound is all that requires to induce apoptosis for the tumor cells.

Test [15] deals with WI-38 (embryonic fibroblast cell line). Nature of the test: MTT cytotoxicity assay, WI-38. Format: cell-based. The following applies: 24 hr.

≈ marks a conversion by molar mass, not a printed value. Read-outs that look alike come from different tables or passages of the source.

`COc1cc(/C=C2\C(=O)OC[C@@H]2Cc2ccc3c(c2)OCO3)cc(OC)c1OC` [BS-8, Isochaihulactone]: the IC50 turned out to be 8 ± 0.8 µg/mL in test [1] (Homo sapiens, A549, read-out: IC 50, A549); 1.7 ± 0.3 µg/mL in test [2] (Homo sapiens, A549, read-out: IC 50, A549-T12, heading: IC 50, A549-T12); 5 ± 0.8 µg/mL in test [3] (Homo sapiens, HT-29, read-out: IC 50, HT 29, heading: IC 50, HT 29); 7.2 ± 1.2 µg/mL (≈ 18.1 µM) in [4]; 3.5 ± 0.7 µg/mL (≈ 8.78 µM) in [5]; 5.5 ± 0.5 µg/mL (≈ 13.8 µM) in [6]. Also, the IC50 in test [7] was determined as 8 ± 0.8 µg/mL (≈ 20.1 µM); in test [8], 7.5 ± 1 µg/mL (≈ 18.8 µM). In addition, the “tumor cells coupled to Annexin V” value amounted to 32.7% in the test on A549 cells [9] and 30.6% with A549-T12 cells [10]. In addition, in the test with telomerase [11], the “effective concentration for inhibiting telomerase activity” value is recorded as “about 1.2 μg/mL”. The cell cycle effect result in the test on A549 cells [12] is on record as “arrest at G2/M stage”. In addition, in the test on p21 and p53, the “expression level of tumor suppressor p21 and p53” value was “significant increase”. For the same compound, the “particular form (polymerized β-microtubule)” value with β-tubulin was “increases”. Also, in the test with β-tubulin, the “soluble form (non-polymerized β-microtubule)” value is on record as “significantly diminishes”. Also, in the test with telomerase [13], the “reduction of telomerase activity vs untreated control” value is on record as 5 times. In addition, the “viability ratio of tumor cells” value with A549-T12 cells [14] was “reduced”.

In the case of `COc1ccc(/C=C2\C(=O)OC[C@@H]2Cc2ccc3c(c2)OCO3)cc1OC` [BS-15, Isokaerophyllin], the “tumor cells coupled to Annexin V” value in the test on A549-T12 cells [10] was 23.1%. Besides, the “viability ratio of tumor cells” value in the test on A549-T12 cells [14] is “reduced”.

For the compound `N.N.[Cl][Pt][Cl]` [Cisplatin, cisdiammine dichloroplatinum], the “IC 50, A549” value in test [1] was 17.2 ± 2.7 mg/mL. Further, the “IC 50, WI 38” value in test [15] came to 21.3 ± 4.5 mg/mL.

Take `COc1cc(/C=C2/C(=O)OC[C@@H]2Cc2ccc3c(c2)OCO3)cc(OC)c1OC` [Component 3, Chaihulactone]: the “expression level of tumor suppressor p21 and p53” value with p21 and p53 is recorded as “significant increase”. For the same compound, the “reduction of telomerase activity vs untreated control” value in the test with telomerase [13] is 5 times.

Consider paclitaxel [Taxol, reference compound], for which the IC50 in [1] (Taxol in nM, read-out: IC 50, A549) is 4 ± 0.6 nM; in test [2] (Taxol in nM, read-out: IC 50, A549-T12), 20 ± 2.7 nM; in [3] (Taxol in nM, read-out: IC 50, HT 29), 3 ± 0.5 nM.
